Assay results published in ChEMBL document CHEMBL4342429, “Synthesis and evaluation of substituted 8,8-dimethyl-8H-pyrano[2,3-f]chromen-2-one derivatives as vasorelaxing agents” (Bioorg Med Chem Lett, 2020).

Key:
[1] = system: Mesenteric artery; test: Vasodilating activity in Wistar rat endothelium intact main mesenteric artery assessed as inhibition of U46619-induced contractions at 30 uM relative to control; assay type: functional
[2] = system: Mesenteric artery; test: Vasodilating activity in Wistar rat endothelium intact main mesenteric artery assessed as inhibition of U46619-induced contractions; assay type: functional, tissue-based; conditions: for EC50: Rattus norvegicus, Wistar, Mesenteric artery
[3] = system: Mesenteric artery; test: Vasodilating activity against U46619-induced contractions in Wistar rat endothelium intact main mesenteric artery assessed as increase in sensitivity relative to scopoletin; assay type: functional
[4] = system: Mesenteric artery; test: Vasodilating activity in Wistar rat endothelium intact main mesenteric artery assessed as inhibition of U46619-induced contractions at 1000 uM relative to control; assay type: functional
[5] = system: Mesenteric artery; test: Vasodilating activity in Wistar rat endothelium intact main mesenteric artery preconstricted with 100 nM U46619 assessed as vasorelaxation relative to control; assay type: functional
[6] = system: Mesenteric artery; test: Vasodilating activity in Wistar rat endothelium-denuded main mesenteric artery preconstricted with 100 nM U46619 assessed as vasorelaxation relative to control; assay type: functional
[7] = system: Mesenteric artery; test: Vasodilating activity in Wistar rat main mesenteric artery preconstricted with 100 nM U46619 assessed as vasorelaxation relative to control; assay type: functional
[8] = system: Mesenteric artery; test: Vasodilating activity in Wistar rat main mesenteric artery preconstricted with 100 nM U46619 assessed as vasorelaxation in presence of 80 mM KCl relative to control; assay type: functional
[9] = system: Mesenteric artery; test: Vasodilating activity in Wistar rat main mesenteric artery preconstricted with 100 nM U46619 assessed as relaxation preincubated for 20 mins in presence of 1 mM tetraethyl ammonium relative to control; assay type: functional
[10] = system: Mesenteric artery; test: Vasodilating activity in Wistar rat endothelium intact main mesenteric artery preconstricted with 100 nM U46619 assessed as vasorelaxation; assay type: functional, tissue-based
[11] = system: Mesenteric artery; test: Vasodilating activity in Wistar rat endothelium-denuded main mesenteric artery preconstricted with 100 nM U46619 assessed as vasorelaxation; assay type: functional, tissue-based

Row | Structure (SMILES) | Emax at 30 µM [1] [%] | pD2 [2] | EC50 [2] [µM] | fold change (FC) [3] | further results
1 | CCCCN(C)C(=O)COc1cc2ccc(=O)oc2c2c1OC(C)(C)C=C2 | 65.7 | 5.575 | 2.66 | 42.11 | 
2 | CC1(C)C=Cc2c(c(OCCN3CCCCC3)cc3ccc(=O)oc23)O1 | < 10 |  |  |  | 
3 | CCCCN(C)C(=O)CCCCOc1cc2ccc(=O)oc2c2c1OC(C)(C)C=C2 | 63.6 | 5.674 | 2.12 | 52.83 | 
4 | COc1cc2ccc(=O)oc2cc1O [SCOPOLETIN] |  | 3.95 | 112 |  | Emax at 1000 µM [4]: 89.2%
5 | CCCCCN(C)C(=O)COc1cc2ccc(=O)oc2c2c1OC(C)(C)C=C2 | 94 | 5.419 | 3.81 | 29.4 | 
6 | CC(CN(C)C)Oc1cc2ccc(=O)oc2c2c1OC(C)(C)C=C2 (stereo not given) | < 10 |  |  |  | 
7 | CCCCCN(C)C(=O)CCCOc1cc2ccc(=O)oc2c2c1OC(C)(C)C=C2 | 95.1 | 5.491 | 3.23 | 34.67 | 
8 | CCCCCN(C)C(=O)CCCCOc1cc2ccc(=O)oc2c2c1OC(C)(C)C=C2 | 83.1 | 5.299 | 5.02 | 22.31 | 
9 | CCN(CC)CCOc1cc2ccc(=O)oc2c2c1OC(C)(C)C=C2 | < 10 |  |  |  | 
10 | CCCCN(C)C(=O)CCCOc1cc2ccc(=O)oc2c2c1OC(C)(C)C=C2 | < 10 |  |  |  | 
11 | CC1(C)C=Cc2c(c(OCCN3CCCC3)cc3ccc(=O)oc23)O1 | < 10 |  |  |  | 
12 | CN(C)CCOc1cc2ccc(=O)oc2c2c1OC(C)(C)C=C2 | < 10 |  |  |  | 
13 | COc1cc2ccc(=O)oc2c2c1OC(C)(C)C=C2 | 96.7 | 5.802 | 1.58 | 70.89 | Emax [5]: 94.9%; Emax [6]: 93.7%; Emax [7]: 94%; Emax [8]: 53.3%; Emax [9]: 54.1%; Activity [10]: Dose-dependent effect; Activity [11]: Dose-dependent effect
